We go through one substance from patent publication US20030032809A1, “Optimized procedures for the manufacture of paroxetine salts” (priority 2001, published 2003).

Data set [1] in a line: Solubility of paroxetine salts in water. Type of data set: physicochemical.
For data set [2] the following is noted: prior-art statement; cited from earlier work.

Consider “(−)-trans-4R-(4′-fluorophenyl)-3S-[(3′,4′-methylenedioxyphenyl)oxymethyl]piperidine acetate [paroxetine acetate]”, for which the solubility entry in data set [1] (purified water, room temperature, purified paroxetine acetate) is given as “at least 1000 mg per one ml”. For the same substance, the “solubility in water (in words)” value in data set [1] (water) is “highly soluble in water”. The “water solubility (in words, background)” value in data set [2] is “excellent water solubility profile”.
